# Results reported in patent US4599336A, “Derivatives of (E)-3-(4-oxo-4H-quinazolin-3-yl)-2-propenamide” (Hoffmann-La Roche Inc., priority 1983, dated 1986).
# Target: T1, Δ^5 -Lipoxygenase (Rattus norvegicus, UniProt P12527)
# T1 construct: using rat basophil leukemia cells (RBL-1 cells) as the enzyme source; endogenous in cells; host or cells: RBL-1 (rat basophil leukemia) cells, 49,300×g supernatant of homogenate
# T1 sequence (P12527 1-673): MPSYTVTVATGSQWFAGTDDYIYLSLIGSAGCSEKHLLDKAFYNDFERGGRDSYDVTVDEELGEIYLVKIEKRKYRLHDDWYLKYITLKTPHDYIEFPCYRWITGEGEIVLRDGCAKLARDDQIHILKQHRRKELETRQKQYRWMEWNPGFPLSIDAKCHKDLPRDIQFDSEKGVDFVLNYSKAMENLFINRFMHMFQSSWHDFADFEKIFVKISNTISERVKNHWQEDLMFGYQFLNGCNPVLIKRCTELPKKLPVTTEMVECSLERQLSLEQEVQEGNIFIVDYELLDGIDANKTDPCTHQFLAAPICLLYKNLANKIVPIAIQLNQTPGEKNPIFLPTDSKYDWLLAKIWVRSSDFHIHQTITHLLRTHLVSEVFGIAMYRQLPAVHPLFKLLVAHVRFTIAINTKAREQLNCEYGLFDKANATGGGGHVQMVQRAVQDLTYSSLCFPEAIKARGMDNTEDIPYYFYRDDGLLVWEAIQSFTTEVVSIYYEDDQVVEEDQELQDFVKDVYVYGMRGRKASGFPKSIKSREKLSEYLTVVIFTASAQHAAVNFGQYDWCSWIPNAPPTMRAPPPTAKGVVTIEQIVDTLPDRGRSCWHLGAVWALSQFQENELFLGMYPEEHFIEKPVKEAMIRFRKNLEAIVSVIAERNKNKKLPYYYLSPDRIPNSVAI
# Test: Δ^5 -Lipoxygenase Inhibition
# Assay type: biochemical
# Conditions: RBL-1 cell supernatant; for inhibition at 10 µM: at 10^-5 M
# Procedure: Δ^5 -Lipoxygenase inhibition was measured by following the conversion of ^14 C-arachidonic acid to ^14 C-5-HETE, using rat basophil leukemia cells (RBL-1 cells) as the enzyme source. These cells were maintained in stationary stock cultures and grown in spinner cultures prior to isolation by centrifugation at 4° C. at 1,500×g for 10 minutes. The cells were washed three times at 4° C. with 0.05M Tris HCl (ph 7.2) containing 1 mM EDTA, 14 μM indomethacin and 0.9% NaCl. They were then homogenized at 0°-4° C. using a glass/glass homogenizer in 0.05M Tris-HCl (pH 7.2) containing 1 mM EDTA and 14 μM indomethacin. The homogenate was then centrifuged at 49,300×g for 20 minutes (0°-4° C.) and the resulting supernatant frozen in small aliquots in a dry ice/acetone bath prior to storage at -80° C. Under these conditions, the enzyme was stable to freezing and thawing and to preincubation for 10 minutes at 30° C.
# For enzyme assay, 100-200 μl of enzyme was incubated in the presence and absence of test compound (prepared in DMSO) for 10 minutes at 30° C. in 0.05M Tris-HCl buffer (pH 7.2) containing 1 mM glutathione, 2 mM CaCl2, 14 μM indomethacin and 0.25 and 0.5 mM EDTA (final volume 400 μl). The final DMSO concentration in these assays was 4%. The assay was initiated by the addition of 100 μl ^14 C-arachidonic acid (58 mCi/mmole) and incubations were carried out for 10 minutes at 37° C. in a shaking water bath. The reactions were stopped by the simultaneous addition of 4.0 ml of diethylether and 100 μl of 1.0 m citric acid, while the tubes were vigorously vortexed. The ^14 C-5-HETE generated by the enzyme was extracted into the acidified ether layer which was separated from the aqueous layer by freezing the assay tubes in a dry ice/acetone bath prior to decanting the liquid ether layer. The ether layer was evaporated to dryness under N2, the residue dissolved in 65 μl chloroform:methanol (2:1 v/v), prior to separating ^14 C-5-HETE from other ^14 C-labeled compounds on silica gel impregnated glass fiber TLC plates utilizing an elution solvent of isoctane:methylethylketone:acetic acid (100:9:1 v/v). ^14 C-5-HETE was identified by its co-chromatography with a chemically synthesized standard. The radioactive peaks of the chromatogram were cut out and the radioactivity was quantitated by liquid scintillation counting. The amount of 5-HETE obtained per sample was expressed as the percent of total and was calculated in the basis of: [formula] in order to evaluate the effect of the test compounds, the mean percent inhibition of ^14 C-5-HETE production was calculated. The IC50 for a drug was determined from a linear regression analysis of a plot of the mean percent inhibition vs drug concentration.
Compound,inhibition at 10 µM [%],inhibition at 1 µM (at 10^-6 M) [%],IC50 [nM]
CC(C)c1ccc2ncn(/C=C/C(=O)NCCCCc3cccnc3)c(=O)c2c1 [drawing 12],84,27,–
CC(C)c1ccc2ncn(/C=C/C(=O)NCCCCn3ccnc3)c(=O)c2c1 [drawing 15],0,–,–
CC(C)c1ccc2ncn(/C=C/C(=O)NCCCCc3ccccn3)c(=O)c2c1 [drawing 17],100,–,800
